Source: publication PMC7391726, “Fatty acid mimetic PBI-4547 restores metabolic homeostasis via GPR84 in mice with non-alcoholic fatty liver disease” (Scientific Reports, 2020)

Test system: HFD-fed WT mice
Test: High-fat diet (HFD) mouse model of obesity/NAFLD, WT mice
Type: in vivo
Excerpt: The well-established high-fat diet (HFD) mouse model of obesity was used to study the impact of PBI-4547 on the onset and progression of NAFLD. A 14-week HFD regimen led to significant weight gain in both male and female mice. […] Moreover, PBI-4547 decreased serum triglycerides while enhancing adiponectin levels. […] Of note, the effects of PBI-4547 on bodyweight, food consumption, glucose tolerance, fasting blood glucose, insulin resistance and HOMA-β indices were absent in standard diet-fed mice (Table S1).
Total cholesterol levels were measured using the HDL/LDL/VLDL Cholesterol Assay kit (Abcam) according to manufacturer’s protocol. […] Liver triglycerides were extracted using a modified version of the Folch protocol[49]^, then quantified using a triglyceride colorimetric kit (Cayman Chemical).
WT or Gpr84^−/− mice, as previously described, (aged 10–14 weeks at the beginning of the experiment) were either fed a standard diet (STD) or a high-fat diet (HFD) (Envigo #TD.06414) for 14 weeks. At this point, mice were administered either vehicle (water) or PBI-4547 (10 mg/kg) on a daily basis for 6 (WT study) or 8 (WT vs KO study) weeks by gastric gavage, and were sacrificed thereafter. Liver and WAT tissues were fixed in 10% formalin for histological analyses or flash frozen in liquid nitrogen for RT-PCR analyses. All animal studies were reviewed and approved by the animal care and use committee of the Institut National de la Recherche Scientifique – Armand-Frappier (Laval, QC, Canada) and the University of Ottawa’s Animal Care and Veterinary Services (Ottawa, ON, Canada). Protocols were approved and undertaken according to the Canadian Council on Animal Care guidelines.
Oral glucose tolerance tests (OGTT) were completed 6 weeks after beginning of the treatments. Briefly, mice were fasted for 4–6 h, given a bolus of glucose at […] BW orally, and blood glucose values measured at 0, 15, 30, 60, 120 min. In parallel, a blood sample was obtained at 0, 15, 60 and 120 min for insulin quantification by ELISA (EMD Millipore).
After fixation in formalin, iWAT (inguinal), eWAT (epididymal) and liver sections were embedded in paraffin. Thin section of […] were stained with Hematoxylin and Eosin or Sirius red for analyses. WAT collagen deposition and liver characteristics of NAFLD were quantified histologically by a pathologist (R.C.) in a double-blinded manner. Liver histology was performed on H&E stained slides. WAT collagen deposition was scored using Picro Sirius-Red stained slides. Immunofluorescence-detection of α-SMA in liver sections was performed. Briefly, samples were deparaffinized in a series of xylenes, rehydrated in graded alcohols followed by an antigen-unmasking step by microwaving in Tris-buffer (pH 8.2). Sections were blocked with 10% donkey serum (Vector labs), 1% bovine serum albumin (Sigma) in PBS + 1%Tween for 1 h at room temperature. Slides were incubated overnight at 4 °C with an anti-mouse smooth muscle α-Actin antibody (1:300; Santa Cruz, clone #1A4). Secondary detection was performed using a donkey anti-mouse Alexa Fluor 594 (1:500; Molecular Probes), incubated for 1 h at room temperature. Slides were dehydrated and mounted with fluorescent antifade media containing DAPI (Vector labs). Images were taken at 100X and 200X magnification and representative images are shown.
RNA was extracted and purified as previously described. Real-time quantitative PCR was performed on a CFX96 Touch Real-Time PCR Detection System (Bio-Rad) using TaqMan gene expression assays (Fisher Scientific). qPCR data were analyzed using the 2-^ΔΔCt method, using Gapdh and Hprt as endogenous control. RT-qPCR data were reported as Geometric means ± SEM.
A portion of hepatic tissue (50 mg) was mechanically homogenized in 1 mL H2O/CH3CN (1/1) using a PowerGen 125 homogenizer (Fisher Scientific). The homogenates were centrifuged for 10 min at 5,000×g at 4 °C. Hydrophilic metabolites were lyophilized to remove water for NMR experiments. […]

[1] = HFD mice, 1H-NMR liver metabolomics

CCCCCc1cc(CCCCC)cc(CC(=O)[O-])c1.[Na+] [PBI-4547, 2-[3,5-dipentylphenyl]acetate sodium salt]
HOMA-IR index (HFD mice, 10 mg/kg daily): decreased by PBI-4547 to the STD group level
degree of hepatic inflammation (histology) (HFD mice, 10 mg/kg daily): remained unchanged
disposition index (HFD mice, 10 mg/kg daily): remained unchanged
fasting insulin levels (HFD mice, 10 mg/kg daily): lowered
hepatic ballooning (histology) (HFD mice, 10 mg/kg daily): markedly reduced
hepatic steatosis (histology) (HFD mice, 10 mg/kg daily): markedly reduced
liver total cholesterol (HFD mice, 10 mg/kg daily): without affecting
liver triglyceride levels (HFD mice, 10 mg/kg daily): reduced
oral glucose tolerance test (OGTT) (HFD mice, 10 mg/kg daily): better glycemic control
overall NAFLD score (HFD mice, 10 mg/kg daily): significantly improving
serum adiponectin levels (HFD mice, 10 mg/kg daily): enhancing
serum triglycerides (HFD mice, 10 mg/kg daily): decreased
organ weight (HFD mice, 10 mg/kg daily by gavage): without affecting
bodyweight (HFD mice, 10 mg/kg daily by gavage, 5 weeks after beginning of treatment): significant reduction
fasting blood glucose (HFD mice, 10 mg/kg daily, after 6 weeks of treatment): decreased
hepatic dysregulation of key amino acids and citric acid cycle intermediates (metabolomics) [1]: corrected
hepatic energy metabolism intermediates (metabolomics) [1]: restored back to normal levels
maximum diameter or average size of adipocytes (HFD mice, WAT morphometric analysis): did not affect
WAT expression of Pgc1a and Ucp1 (HFD mice, WAT qRT-PCR): induced
WAT expression of resistin and glucose transporters Slc2a2, Slc2a4 (HFD mice, WAT qRT-PCR): increased
WAT expression of vaspin (Serpina12) (HFD mice, WAT qRT-PCR): completely abolished
WAT mRNA of pro-fibrotic (Cola1, Ctgf, Mmp2, Timp1) and pro-inflammatory (Il6, Ccl2) genes (HFD mice, WAT qRT-PCR): downregulated
NAD+ in liver (HFD mice, liver metabolomics): restored high levels
hepatic Ucp2 and Ucp3 expression (HFD mice, qRT-PCR): highly upregulated
hepatic expression of FA metabolism genes Acox1, Cpt1b, Pdk4, Hadha, Cd36 (HFD mice, qRT-PCR): strong upregulation
hepatic expression of glucose metabolism genes Pklr, G6pc, Slc2a2 (HFD mice, qRT-PCR): normalized
liver Adipor2 expression (HFD mice, qRT-PCR): downregulated
liver Ctgf mRNA levels (HFD mice, qRT-PCR): significantly decreased
liver Mmp2 mRNA levels (HFD mice, qRT-PCR): significantly decreased
liver Retn (resistin) expression (HFD mice, qRT-PCR): restored to normal levels
liver Serpina12 (vaspin) expression (HFD mice, qRT-PCR): downregulated
liver pro-inflammatory genes (HFD mice, qRT-PCR): not modulated
WAT extent of interstitial fibrosis (HFD mice, white adipose tissue): decreased
WAT immune cell infiltration (HFD mice, white adipose tissue): decreased
serum total cholesterol (HFD mice, after four weeks of treatment): returned to similar level as in the HFD group
serum total cholesterol (HFD mice, after two weeks of treatment): slightly increased
HOMA-IR index (WT vs KO study, HFD-fed WT): reduced
WAT mean adipocyte diameters and area (WT vs KO study, HFD-fed WT): remained unchanged
fasting blood glucose levels (WT vs KO study, HFD-fed WT): downregulated
insulin levels (WT vs KO study, HFD-fed WT): reduced
liver glycogen levels (WT vs KO study, HFD-fed WT): increased
serum adiponectin (WT vs KO study, HFD-fed WT): upregulated
serum cholesterol levels (WT vs KO study, HFD-fed WT): remained unchanged
serum triglyceride levels (WT vs KO study, HFD-fed WT): lowered
α-SMA positive liver staining (immunofluorescence) (WT vs KO study, HFD-fed WT): dramatic drop
bodyweight (WT vs KO study, HFD-fed WT, 10 mg/kg daily, 8 weeks): decreased
OGTT (WT vs KO study, HFD-fed WT, after 6 weeks): significant effect
AMPK phosphorylation levels in the liver (data not shown): promote
